Several values for one entry are separate records, joined by “and”; a condition that tells them apart may be missing. Equal values may be shown once. Read-outs that look alike come from different tables or passages of the source.
Legend:
Shaker K+ channel = target: T1, Shaker K+ channel (Drosophila melanogaster, UniProt P08510, DEL6-46); assay: cell-based; type: cell-based, D. melanogaster; settings: for δ (fractional distance through the membrane electrical field): Woodhull fit of IC50 vs voltage curves
T1 construct: expressed in transfected cells; host or cells: Xenopus laevis oocytes injected with in vitro transcribed cRNA (cDNA clone from the Bezanilla laboratory)
T1 sequence (P08510 other isoform, or with tags, fused parts or gaps DEL6-46): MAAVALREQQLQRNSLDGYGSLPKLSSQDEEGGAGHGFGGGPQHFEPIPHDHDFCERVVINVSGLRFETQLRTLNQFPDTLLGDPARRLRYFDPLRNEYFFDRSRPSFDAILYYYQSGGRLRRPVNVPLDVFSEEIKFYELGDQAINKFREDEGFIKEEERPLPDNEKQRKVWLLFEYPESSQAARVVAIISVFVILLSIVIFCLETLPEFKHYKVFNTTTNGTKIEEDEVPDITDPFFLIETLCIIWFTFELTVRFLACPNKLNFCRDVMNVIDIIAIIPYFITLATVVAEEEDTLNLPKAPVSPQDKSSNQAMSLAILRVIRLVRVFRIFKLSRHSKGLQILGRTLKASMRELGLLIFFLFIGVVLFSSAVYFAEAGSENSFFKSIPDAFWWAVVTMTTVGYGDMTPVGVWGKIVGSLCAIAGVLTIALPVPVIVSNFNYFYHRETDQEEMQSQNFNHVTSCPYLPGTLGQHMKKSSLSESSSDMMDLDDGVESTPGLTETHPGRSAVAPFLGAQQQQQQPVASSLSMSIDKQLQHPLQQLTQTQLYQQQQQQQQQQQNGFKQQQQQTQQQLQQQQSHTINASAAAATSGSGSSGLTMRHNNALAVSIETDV
Method: K^+ currents were measured in Xenopus oocytes expressing the commonly studied voltage-gated K^+ channel Shaker from D. melanogaster. In order to determine the relative blocking capacity, each drug was applied to the same oocyte at increasing concentrations ranging from 1 to 10,000 μM. Then, the relative current was determined as the ratio between the maximal amplitude of the K^+ current in the absence and in the presence of each drug. […] The Hill equation (Eq. 1) was fitted to the dose-response curves and used to calculate the IC50 for each drug at pH 7.4.
A sample of cDNA clone encoding for Shaker voltage-gated K^+ channel from D. melanogaster with inactivation removed[51] was generously provided by the laboratory of Prof. Francisco Bezanilla at The University of Chicago. The DNA was amplified, linearized with Not I enzyme (New England Biolabs, Inc., Ipswich, MA, USA) and transcribed in vitro using the T7 promoter mMESSAGE cRNA kit (Ambion, Austin, Tex., USA).
Shaker channel was heterologously expressed in Xenopus laevis oocytes. Only mature Xenopus laevis frogs (Aquanimals SA de CV, Queretaro, Mexico) were used as oocytes suppliers. A volume of 1−3 mL from the ovary lobes was extracted via survival surgery under anesthesia. All methods involving live animals were performed in accordance with relevant guidelines and regulations and with the approval of the Comité Institucional del Cuidado y Uso de Animales en el Laboratorio (CICUAL-CUCEI-UDG). Subsequently, oocytes were isolated with the treatment of collagenase type II (Worthington Biochemical Corp., NJ, USA) under mechanical agitation. After the isolation with collagenase, each oocyte was injected with 15–25 ng of RNA encoding for the Shaker ion channel and incubated for 8–12 h at 17 °C in a Standard Oocytes Saline (SOS) solution containing (in mM): 100 NaCl, 1 MgCl2, 10 HEPES, 2 KCl and 1.8 CaCl2 with 50 μg/mL gentamycin at pH 7.5.
All chemical compounds for this study were acquired from Sigma-Aldrich (Sigma-Aldrich Co., St. Louis, MO, USA) and Chem-Impex International (Chem-Impex International, Inc. Wood Dael, IL, USA) unless otherwise indicated. Electrophysiology measurements were conducted using the methodology of cut-open oocyte voltage clamp (COVC)[52]. For COVC procedures, the internal recording solution contained (in mM): 120 KOH, 2 EGTA, and 20 HEPES. The external recording solution was composed (in mM) by: 12 KOH, 2 Ca(OH)2, 105 NMDG (N-methyl-D-glucamine)-methylsufonate (MES), and 20 mM HEPES. For measurements carried out at pH of 6.8 and 7.4, the pH of both solutions was adjusted with MES. For measurements carried out at pH = 9.1, HEPES was replaced by 2-(cyclohexylamino)ethanesulfonic acid (CHES).
K^+ currents were recorded in the same oocyte, first in absence (IK) and then in presence of each drug (II). IK was elicited by depolarizing the oocyte membrane with a voltage protocol that consisted in steps of 50 ms from −100 to 50 mV in increments of 10 mV. […] The integrity and stability of each oocyte were continuously monitored throughout the experiment.
Ionic currents were amplified and digitized with the Oocyte Clamp Amplifier CA-1A (Dagan Corporation, Minneapolis, MN, USA) and the USB-1604-HS-2AO Multifunction Card (Measurement Computing, Norton, MA, USA), respectively, and controlled with the GpatchMC64 program (Department of Anesthesiology, UCLA, Los Angeles, CA, USA) via a PC. Data were sampled at 100 kHz and filtered at 10 kHz. All the experiments were performed at room temperature (21–23 °C).
Ion currents recordings were analyzed with Analysis (Department of Anesthesiology, UCLA, Los Angeles, CA, USA) and OriginPro 8 (OriginLab Corporation, Northampton, MA, USA.) programs.
Mean values of data ± standard deviation (s.d.) are given or plotted and the number of experiments is denoted by n. The 95% of confidence interval (IC95) is denoted as [Upper limit-Lower limit]; where Upper limit = 10^(logIC50+s.d) and Lower limit = 10^(logIC50−s.d) .

[1] = pKa determination by acid titration; type: physicochemical; settings: acid titration in water, Gran plot, 4 replicates
Method: The pKa of each compound was measured by acid titration. […] This procedure was repeated 4 times for each compound.

[2] = Octanol-water partition coefficient (logD) at pH 7.4, modified shake flask method; type: physicochemical; settings: pH 7.4, 4 replicates
Method: The octanol-water partition coefficient (logD) at pH 7.4 was determined using a modified version of the shake flask method. Briefly, PBS (900 µL), 1-octanol (900 µL) and a 10 mg/mL aqueous solution of each compound (2 µL) were added to a 2 mL HPLC vial. The compounds were partitioned between the layers via vortexing and centrifuged at 1,000 g for 1 min to allow for phase separation. A portion (10 µL) was taken from each layer (autoinjector was set up to draw volume at two different heights) and analyzed by HPLC. The relative concentration in each phase was determined by integrating the area under each peak and comparing the ratio of the areas from the octanol and aqueous layers. A calibration curve was performed to ensure that the concentrations detected were within the linear range of the detector. This procedure was repeated 4 times for each compound.

[3] = cited from earlier work
[4] = 0 mV, pH 6.8, Hill fit, read-out: IC50
[5] = 0 mV, pH 7.4, Hill fit, read-out: IC50
[6] = 0 mV, pH 9.1, Hill fit, read-out: IC50
[7] = 40 mV, pH 7.4, Hill equation fit, read-out: IC50
[8] = 1-octanol/PBS, pH 7.4, octanol/water (PBS), read-out: logD
[9] = IC50, 40 mV, pH 7.4, Hill equation fit
[10] = IC50 at V = 0 mV (Woodhull parameter), fit of IC50 vs voltage curves (10 to 50 mV) with Woodhull model, mean ± SD
[11] = IC50 increase with voltage (from lowest to highest voltage), over the voltage values studied, Fig. 4 shows 10 to 50 mV
[12] = fit of IC50 vs voltage curves (10 to 50 mV) with Woodhull model, mean ± SD, read-out: IC50 at V = 0 mV (Woodhull parameter)
[13] = over the voltage values studied, Fig. 4 shows 10 to 50 mV, read-out: IC50 increase with voltage (from lowest to highest voltage)

Row | SMILES | IC50 (Shaker K+ channel; [4]) [µM] | IC50 (Shaker K+ channel; [5]) [µM] | IC50 (Shaker K+ channel; [6]) [µM] | IC50 (Shaker K+ channel; [7]) [µM] | blocking of the channel (Shaker K+ channel; at 10 mM, pH 7.4, 40 mV) | pKa [1] | pKa ([1]; water, read-out: pKa) | logD [2, 8] | logD ([2]; octanol/water (PBS)) | IC50 (Shaker K+ channel; IC50, 0 mV, pH 6.8, Hill fit) [µM] | IC50 (Shaker K+ channel; IC50, 0 mV, pH 7.4, Hill fit) [µM] | IC50 (Shaker K+ channel; IC50, 0 mV, pH 9.1, Hill fit) [µM] | IC50 (Shaker K+ channel; [9]) [µM] | IC50 (Shaker K+ channel; [10]) [µM] | IC50 (Shaker K+ channel; [11]) [µM] | δ (fractional distance through the membrane electrical field) (Shaker K+ channel) | IC50 (Shaker K+ channel; [12]) [µM] | IC50 (Shaker K+ channel; [13]) [µM] | potency relative to 4AP (Shaker K+ channel; pH 7.4, 40 mV) | pKa [3]
1 | Nc1ccnc(C(F)(F)F)c1 [2CF34AP, 2-trifluoromethyl-4-aminopyridine] | 10400 | 11900 | 18200 | 12800 | ~ 50% | 7.0 ± 0.4 | < 8 | 1.48 | 0.906 ± 0.006 |  |  |  |  |  |  |  |  |  |  | 
2 | Nc1ccncc1C(F)(F)F [3CF34AP, 3-trifluoromethyl-4-aminopyridine] |  |  |  |  |  | 7.17 ± 0.04 | < 8 | 0.91 | 1.484 ± 0.009 | 249 | 690 | 2190 | 1060 | 516 ± 51 | 690 to 1150 | 0.46 ± 0.10 |  |  |  | 
3 | Nc1ccncc1F [3F4AP, 3-fluoro-4-aminopyridine, reference compound] | 82 | 160 | 185 | 244 |  | 7.65 ± 0.15 | < 8 | 0.41 | 0.414 ± 0.002 |  |  |  |  |  |  | 0.46 ± 0.10 | 122 ± 4 | 160 to 304 | comparable to 4AP | 7.6
4 | Cc1cnccc1N [3Me4AP, 3-methyl-4-aminopyridine] |  |  |  |  |  | 9.82 ± 0.06 | > 9 |  | −1.23 and −1.232 ± 0.008 | 66 | 39 | 15 | 40 | 21 ± 1 | 37 to 50 | 0.43 ± 0.10 |  |  |  | 
5 | COc1cnccc1N [3MeO4AP, 3-methoxy-4-aminopyridine] | 357 | 355 | 492 | 807 |  | 9.18 ± 0.02 | > 9 | -0.76 ± 0.03 |  |  |  |  |  |  |  | 0.56 ± 0.02 | 329 ± 17 | 310 to 992 |  | 
6 | Nc1ccncc1 [4AP, 4-aminopyridine, reference compound] |  |  |  |  |  | 9.58 ± 0.07 | > 9 |  | −1.48 and −1.478 ± 0.014 |  |  |  |  |  |  | 0.41 ± 0.08 |  |  |  | 

From publication PMC6952366 (Scientific Reports, 2020)
